Read-outs that look alike come from different tables or passages of the source.
Tests used:
[1] = tested on: HIV-1 strain LAI; test: Cellular anti-HIV assay in MT4 cells (MTT); type: cell-based; conditions: for IC50: read-out: IC50
Description: (§1) HIV- or mock-infected MT4 cells were incubated for five days in the presence of various concentrations of the inhibitor. At the end of the incubation period, all HIV-infected cells have been killed by the replicating virus in the control cultures in the absence of any inhibitor. Cell viability is measured by measuring the concentration of MTT, a yellow, water soluble tetrazolium dye that is converted to a purple, water insoluble formazan in the mitochondria of living cells only. Upon solubilization of the resulting formazan crystals with isopropanol, the absorbance of the solution is monitored at 540 nm. The values correlate directly to the number of living cells remaining in the culture at the completion of the five day incubation. The inhibitory activity of the compound was monitored on the virus-infected cells and was expressed as IC50 and IC90. These values represent the amount of the compound required to protect 50% and 90%, respectively, of the cells from the cytopathogenic effect of the virus. The toxicity of the compound was measured on the mock-infected cells and was expressed as CC50, which represents the concentration of compound required to inhibit the growth of the cells by 50%. The select index (SI) (ratio CC50/IC50) is an indication of the selectivity of the anti-HIV activity of the inhibitor.

[2] = tested on: HIV strain r13034; test: Antiviral spectrum, protease inhibitor resistant strain; type: cell-based; conditions: strain r13034; L10I, M36I, I54V, L63P, A71V, I84V
Description: as §1
(§2) Because of the increasing emergence of drug resistant HIV strains, compound 13 and compound 14 were tested for its potency against HIV strains harbouring several mutations. These mutations are associated with resistance to protease inhibitors and result in viruses that show various degrees of phenotypic cross-resistance to five of the currently commercially available drugs (Saquinavir, Ritonavir, Nelfinavir, Indinavir and Amprenavir).

[3] = tested on: HIV strain r13027; test: as above; type: cell-based; conditions: strain r13027; L10M/I, K20R, M36I, L63P, A71V, G73S, V77I, I84V, L90M
Description: as §1, §2

[4] = tested on: HIV strain r13030; test: as above; type: cell-based; conditions: strain r13030; L10V/I, M36I, I54V, L63P, A71V, V82T, L90M
Description: as §1, §2

[5] = tested on: HIV strain r13021; test: as above; type: cell-based; conditions: strain r13021; L10I, K20R, L24I, M36I, I54V, L63P, A71V, V82T, I84V
Description: as §1, §2

[6] = tested on: HIV strain r13022; test: as above; type: cell-based; conditions: strain r13022; K20R, M36I, M46I/M, 154V, L63P, A71V/I, V82T, L90M
Description: as §1, §2

[7] = tested on: HIV strain r13035; test: as above; type: cell-based; conditions: strain r13035; D30N, L63P, V77I, N88D
Description: as §1, §2

[8] = tested on: HIV strain r13031; test: as above; type: cell-based; conditions: strain r13031; G48V, I54V, V77I, V82A, L90M/L
Description: as §1, §2

[9] = tested on: HIV strain r13033; test: as above; type: cell-based; conditions: strain r13033; L10I, M46L, I54V, L63P, A71V, V82A, L90M
Description: as §1, §2

[10] = tested on: HIV strain r13024; test: as above; type: cell-based; conditions: strain r13024; L10I, M36I, L63P, A71V, G73S, I84V, L90M
Description: as §1, §2

[11] = tested on: HIV strain r13037; test: as above; type: cell-based; conditions: strain r13037; L10I, M46I, I54V, L63P, A71T, V77I, V82A, L90M
Description: as §1, §2

[12] = tested on: HIV strain r13023; test: as above; type: cell-based; conditions: strain r13023; L10I, M36I/M, I54V/I, L63P, A71V, G73S, I84V, L90M
Description: as §1, §2

[13] = tested on: HIV strain r13036; test: as above; type: cell-based; conditions: strain r13036; L10I, L63P, A71V, G73S, L90M
Description: as §1, §2

[14] = tested on: HIV strain r13025; test: as above; type: cell-based; conditions: strain r13025; L10I, M46I, L63P, A71V, I84V
Description: as §1, §2

[15] = tested on: HIV strain r13029; test: as above; type: cell-based; conditions: strain r13029; L10I/L, M36I, M46L, L63P, A71V, I84V, N88D, L90M
Description: as §1, §2

[16] = tested on: HIV; test: Anti-HIV activity in the presence of human serum proteins (HSA or AAG); type: cell-based
Description: as §1, with “These values represent the amount of the compound required to protect 50% and 90%, respectively, of the cells from the cytopathogenic effect of the virus. The toxicity of the compound was measured on the mock-infected cells and was expressed as CC50, which represents the concentration of compound required to inhibit the growth of the cells by 50%. The select index (SI) (ratio CC50/IC50) is an indication of the selectivity of the anti-HIV activity of the inhibitor.” left out
Human serum proteins like albumin (HSA) or alpha-1 acid glycoprotein (AAG) are known to bind many drugs, resulting in a possible decrease in the effectiveness of those compounds. In order to determine whether compound 13 would be adversely effected by this binding, the anti-HIV activity of the compound was measured in the presence of physiological concentrations of HSA or AAG, thus evaluating the effect of the binding of the inhibitor to those proteins.

[17] = Oral absorption in rats, serum concentration; type: in vivo; conditions: single oral dose 20 mg/kg in PEG400 by gavage, read-out: Compound concentration in serum
Description: The oral absorption of compound 13 was then measured in rats to determine bioavailability. The compound was administered by gavage to rats, as a single dose of 20 mg/kg in PEG400. Animals were sacrificed at different time points after administration, whole blood was collected and serum prepared by standard methods. Concentration of the compound in serum was determined by titrating the anti-HIV activity present in the sample according to the procedure described above.

CC(C)CN(CC(O)C(Cc1ccccc1)NC(=O)OC1COC2OCCC12)S(=O)(=O)c1ccc2c(c1)OCO2 (stereo not shown) [Compound 13, hexahydrofuro[2,3-b]furan-3-yl-N-{3-[(1,3-benzodioxol-5-ylsufonyl)(isobutyl)amino]-1-benzyl-2-hydroxypropyl}carbamate]
SI (ratio CC50/IC50) ([1]; CC50 on mock-infected MT4 cells / IC50 on HIV-1 LAI): 13,900 | IC90 ([1]; Human immunodeficiency virus 1, 120 h, HIV-1 strain LAI, MT4 cells, five days, median value of 12 determinations): 2.4 nM | IC50 ([1]; Human immunodeficiency virus 1, MT4, 120 h, HIV-1 strain LAI, MT4 cells, five days): 1.1 nM | IC50 ([1]; strain LAI): 1.4 nM | IC50 [2]: 8 nM | IC50 [3]: 7.4 nM | IC50 [4]: 0.4 nM | IC50 [5]: 5.5 nM | IC50 [6]: 1.7 nM | IC50 [7]: 0.3 nM | IC50 [8]: 0.5 nM | IC50 [9]: 1.7 nM | IC50 [10]: 8.1 nM | IC50 [11]: 0.3 nM | IC50 [12]: 6.8 nM | IC50 [13]: 5.4 nM | IC50 [14]: 45.4 nM | IC50 [15]: 7 nM | decrease of the potency ([16]; AAG at a concentration of 2 mg/ml): two to four | effect on the potency ([16]; HSA at a concentration of 45 mg/ml): no effect | concentration at 0 min ([17]; rat, serum, po, 20 mg/kg, 0 minutes after administration): 0 nM | concentration at 60 min ([17]; rat, serum, po, 20 mg/kg, 60 minutes after administration): 1000 nM | concentration at 180 min ([17]; rat, serum, po, 20 mg/kg, 180 minutes after administration): 687 nM | concentration at 300 min ([17]; rat, serum, po, 20 mg/kg, 300 minutes after administration): 216 nM | concentration at 300 min ([17]; 60 minutes after administration): 985.8 nM
